Non-standard residues stand in square brackets, D forms with d. Residues, ends and D or L forms follow the SMILES beside them. *: point of attachment. X1 = CN(C)c1ccc2c(c1)Oc1cc(N(C)C)ccc1C21OC(=O)c2cc(NC(=S)*)ccc21; pT = C[C@@H](OP(=O)(O)O)[C@H](N)C(=O)O; pS = N[C@@H](COP(=O)(O)O)C(=O)O
Experiments:
[1] = molecular target: T1, Pin1 PPIase domain (Homo sapiens, UniProt Q13526); experiment: Fluorescence anisotropy binding of rhodamine-labeled peptides to isolated Pin1 PPIase domain
T1 construct: the PPIase domain includes residues 50–163 of Pin1
Method: Protein purification and crystallography. His8-tagged Pin1 was expressed and purified by Ni^+2-chelation chromatography, the histidine tag was removed by thrombin digestion, and the protein purified as described in Ranganathan et al., Cell 89:875–886, 1997. All site-directed mutants were constructed using the QuikChange (Stratagene) protocol and purified like wild type Pin1. Crystals of the Pin1-YpSPTpSPS complex were grown in hanging drops at 4° C. by mixing 1.0 μl of the Pin1-peptide complex with 1.0 μl of a reservoir solution containing 100 mM MOPSO-Na^+ (pH 7.0), 28% (v/v) PEG 8000, 2 mM DTT, stabilized in 100 mM MOPSO-Na^+ (pH 7.0), 25% (v/v) PEG 8000, 20% (v/v) glycerol, 1 mM DTT, and rapidly frozen in a 100 K stream of nitrogen gas. A native data set extending to 1.84 Å resolution was collected at the Stanford Synchrotron Radiation Laboratory, beamline 9-1 (λ=0.98 Å). Data were processed with DENZO and scaled with […] (Otwinowski, Z., Minor, W. Meth. Enzymol. 276:307–326, 1997). The crystals contain one Pin1-peptide complex per asymmetric unit and belong to space group P212121 (a=35.27 Å, b=43.90 Å, c=124.66 Å, α=β=γ=90°). The final data set with an overall R merge of 6.2% (R merge=33.7% in the highest resolution shell) is 97.3% complete (98.2% in the highest resolution shell) for the resolution range of 62.02 Å to 1.84 Å. The structure of the Pin1-YpSPTpSPS repeat complex was solved by molecular replacement with AMORE (Navaza, J. Acta Crystallogr. A 50:157–163, 1994) using the Pin1 monomer as a starting model (Ranganathan et al., Cell 89:875–886, 1997). The resulting model was then positionally refined against all the data between 62.02 Å and 1.84 Å using the default bulk solvent model in CNS with maximum likelihood targets (Brunger et al., Acta Crystallogr. D 54:905–921, 1998). After refining the rebuilt model, water molecules were added automatically using CNS and edited manually in O. The final positional refinement converged to a crystallographic R factor of 24% (R free=27%) for all data (17107 reflections) between 62.02 Å and 1.84 Å. This model consists of residues 1 to 38 and 51 to 163 of human Pin1, the entire phosphopeptide, and 151 water molecules. Model quality was checked with PROCHECK (Laskowski et al., J. Appl. Crystallogr. 26:283–291, 1993). A total of 91.7% of the residues are in the most favored regions of the Ramachandran plot, 6.8% in the additional allowed region, and 0.8% in the generously allowed region. Glu-5 borders the generously allowed region.
Binding Analysis. […] These peptides were derived from proteins previously shown to interact with Pin1. While the set of peptides examined is limited, a consensus emerges from comparison of the highest affinity interactions. Lyophilized peptides were dissolved in 25 mM HEPES-Na^+ (pH 7.5), 100 mM NaCl, 1 mM DTT and stored for short periods of time at −20° C. […] Fluorescence data were collected on a PTI Alphascan spectrofluorimeter (Photon Technology Instruments, Santa Clara, Calif.). Dissociation equilibrium constants for Pin1-peptide complexes were determined by measuring the change in fluorescence anisotropy of a set of peptide solutions at constant concentration of peptide each of which contained varied concentrations of Pin1 using the procedure described previously (Vinson et al., Biochemistry 37:10871–10880, 1998). The core binding element determined from this group of peptides is PXpSP, where X cannot be Gly. […]

[2] = molecular target: T2, Pin1 (Homo sapiens, UniProt Q13526); experiment: Fluorescence anisotropy binding of rhodamine-labeled peptides to full length Pin1; conditions: errors are deviations from theoretical binding isotherms
T2 construct: His8 (cleaved yes); made in house; host or cells: E. coli
Method: (§1) Protein purification and crystallography. His8-tagged Pin1 was expressed and purified by Ni^+2-chelation chromatography, the histidine tag was removed by thrombin digestion, and the protein purified as described in Ranganathan et al., Cell 89:875–886, 1997. All site-directed mutants were constructed using the QuikChange (Stratagene) protocol and purified like wild type Pin1. Crystals of the Pin1-YpSPTpSPS complex were grown in hanging drops at 4° C. by mixing 1.0 μl of the Pin1-peptide complex with 1.0 μl of a reservoir solution containing 100 mM MOPSO-Na^+ (pH 7.0), 28% (v/v) PEG 8000, 2 mM DTT, stabilized in 100 mM MOPSO-Na^+ (pH 7.0), 25% (v/v) PEG 8000, 20% (v/v) glycerol, 1 mM DTT, and rapidly frozen in a 100 K stream of nitrogen gas. […]
(§2) Binding Analysis. […] Fluorescence data were collected on a PTI Alphascan spectrofluorimeter (Photon Technology Instruments, Santa Clara, Calif.). Dissociation equilibrium constants for Pin1-peptide complexes were determined by measuring the change in fluorescence anisotropy of a set of peptide solutions at constant concentration of peptide each of which contained varied concentrations of Pin1 using the procedure described previously (Vinson et al., Biochemistry 37:10871–10880, 1998). The core binding element determined from this group of peptides is PXpSP, where X cannot be Gly. […]

[3] = molecular target: T3, Pin1 WW domain (Homo sapiens, UniProt Q13526); experiment: Fluorescence anisotropy binding of rhodamine-labeled peptides to isolated Pin1 WW domain
T3 construct: The WW domain of Pin1 includes residues 1 to 39
Method: as §1, §2

T1 sequence (Q13526 50-163): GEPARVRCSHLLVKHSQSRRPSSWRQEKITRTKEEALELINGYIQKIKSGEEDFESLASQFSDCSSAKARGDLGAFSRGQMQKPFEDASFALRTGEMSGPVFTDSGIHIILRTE
T3 sequence (Q13526 1-39 limits assumed): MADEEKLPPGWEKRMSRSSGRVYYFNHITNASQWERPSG
T2 sequence (Q13526 whole entry): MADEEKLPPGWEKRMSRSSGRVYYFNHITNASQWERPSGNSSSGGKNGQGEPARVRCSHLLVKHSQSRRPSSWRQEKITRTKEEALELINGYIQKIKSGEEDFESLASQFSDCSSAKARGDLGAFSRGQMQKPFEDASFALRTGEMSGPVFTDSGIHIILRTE

| Molecule | Dissociation equilibrium constants for Pin1-peptide complexes, PPIase [1] | Dissociation equilibrium constants for Pin1-peptide complexes, Pin1 [2] | Dissociation equilibrium constants for Pin1-peptide complexes, WW [3] |
| --- | --- | --- | --- |
| C[C@H](NC(=O)[C@@H]1CCCN1C(=O)[C@@H]1CCCN1C(=S)Nc1ccc2c(c1)C(=O)OC21c2ccc(N(C)C)cc2Oc2cc(N(C)C)ccc21)C(=O)N[C@H](C(=O)N1CCC[C@H]1C(=O)N1CCC[C@H]1C(=O)O)[C@@H](C)OP(=O)(O)O [PPApTPP (Myt1-T412), PPApTPP] (X1-PPA[pT]PP-OH) | n.b. |  |  |
| CN(C)c1ccc2c(c1)Oc1cc(N(C)C)ccc1C21OC(=O)c2cc(NC(=S)N3CCC[C@H]3C(=O)N3CCC[C@H]3C(=O)NCC(=O)N[C@@H](COP(=O)(O)O)C(=O)N3CCC[C@H]3C(=O)N3CCC[C@H]3C(=O)O)ccc21 [PPGpSPP (Myt1-S416), PPGpSPP] (X1-PPG[pS]PP-OH) | n.b. |  |  |
| C[C@@H](O)[C@H](NC(=O)[C@H](CO)NC(=S)Nc1ccc2c(c1)C(=O)OC21c2ccc(N(C)C)cc2Oc2cc(N(C)C)ccc21)C(=O)N[C@@H](CO)C(=O)N[C@H](C(=O)N1CCC[C@H]1C(=O)N[C@@H](CCCNC(=N)N)C(=O)O)[C@@H](C)OP(=O)(O)O [STSpTPR (Myt1-T455), STSpTPR] (X1-STS[pT]PR-OH) | n.b. |  |  |
| CC(C)[C@H](NC(=O)[C@@H]1CCCN1C(=O)[C@@H](NC(=O)[C@H](CCCNC(=N)N)NC(=O)[C@@H]1CCCN1C(=O)[C@@H](NC(=S)Nc1ccc2c(c1)C(=O)OC21c2ccc(N(C)C)cc2Oc2cc(N(C)C)ccc21)C(C)C)[C@@H](C)OP(=O)(O)O)C(=O)O [VPRpTPV (Cdc25c-T48), VPRpTPV] (X1-VPR[pT]PV-OH) | n.b. |  |  |
| YSPTSPS [YSPTSPS (CTD), unphosphorylated heptad repeat of the C-terminal domain of RNA Polymerase II, rhodamine-labeled] | n.b. | n.b. | n.b. |

— patent US7127357B1, “Crystal structure of WW domains and methods of use thereof” (The Salk Institute for Biological Studies, priority 2000, dated 2006)
